Experimental data reported in PubChem BioAssay AID1159559 (GlaxoSmithKline (GSK), 2015).
pIC50: −log10 of the molar value. Activity calls are given as the source filed them.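 Rule for the calls: active = compounds whose IC50 against parasite growth in infected mouse cells is below 50000 nM; inactive = the rest.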

System: T. cruzi Tulahuen in NIH-3T3, beta-gal fluorescence, 4 d
Test: anti-Chagas amastigote proliferation inhibitors – cell-based (AID 1159559)

Going from `O=C(NCC(c1cccs1)N1CCOCC1)c1ccc([N+](=O)[O-])o1` (centres undefined) to `O=S(=O)(c1cccc(CSc2nnc(-c3ccc4c(c3)OCO4)o2)c1)N1CCOCC1`, the pIC50 rises from 5.49 to 6.70 (1.21 log units).

First: N#Cc1ccc(S(=O)(=O)N2CCC3(CCN(c4ccccc4)C3=O)CC2)cc1
Second: Cc1ccc(NC(C)C(=O)Nc2ccc(C#N)cc2)cc1S(=O)(=O)N1CCCCC1 (centres undefined)
The pIC50 of the first is 0.89 log units higher: 5.89 for the first, 5.00 for the second. The first is the more potent here.

First: CC(C)Nc1nc(Cl)nc2ccccc12
Second: c1ccc(-c2nc(NC3CCCC3)c3ccccc3n2)nc1
The pIC50 of the first is 0.30 log units lower: 5.40 for the first, 5.70 for the second.

Compared with `Cc1ccc(S(=O)(=O)Nc2ccc(CN3CCN(C(=O)c4cccc(C#N)c4)CC3)cc2)cc1`, `O=C(Nc1cccc(S(=O)(=O)Nc2ccc(Br)cc2)c1)c1ccc([N+](=O)[O-])s1` is 0.70 log units higher in pIC50: 6.30 for the first, 7.00 for the second. The second is the more potent here.

`OC1CCC(Nc2nccc(-c3sc(C4CCOCC4)nc3-c3ccc(F)c(F)c3)n2)CC1` (centres undefined) and `CCCCNc1nccc(-c2c(-c3ccc(F)cc3)nn3c(N4CCOCC4)cccc23)n1` are within 0.2 log units of each other in pIC50: 6.49 for the first, 6.40 for the second.

`Cc1ccc2c(c1)SC(C(=O)Nc1n[nH]c(-c3ccccn3)n1)C2` (centres undefined) and `Oc1cccnc1-c1n[nH]c(Cc2ccccc2)n1` are within 0.2 log units of each other in pIC50: 5.30 for the first, 5.20 for the second.

First: CCOc1ccc(NC(=O)c2ccc(NC(=O)NC3CCCCC3)cc2)cc1
Second: O=C(NCC1CCCCN1C(=O)c1cccc2ccccc12)c1ccccc1 (centres undefined)
The pIC50 of the first is 0.71 log units lower: 4.49 for the first, 5.20 for the second. The second is the more potent here.

Compared with `CC(C)(C)CC(=O)NCc1noc(COc2ccccc2)n1`, `c1ccc(CNc2cccc3ccncc23)cc1` is 0.40 log units lower in pIC50: 5.60 for the first, 5.20 for the second. The first is the more potent here.

First: CC(=O)NCCNc1cc(-c2ccnc(Nc3cccc(Cl)c3)n2)ccn1
Second: OCCCNc1nc(Nc2ccncc2)nc2ccccc12
The pIC50 of the first is 0.20 log units higher: 6.40 for the first, 6.20 for the second.

First: O=C(CN1CCC2(O)CCCCC2C1c1ccc2c(c1)OCO2)Nc1ccc(Cl)cc1Cl (centres undefined)
Second: COc1ccc(C2C3CCCCC3(O)CCN2CC(=O)Nc2ccc(Cl)cc2Cl)cc1 (centres undefined)
The pIC50 of the first is 0.71 log units lower: 4.89 for the first, 5.60 for the second.

Compared with `Cc1nc(-c2nc(NCc3ccc(Cl)cc3)c3cccnc3c2O)n[nH]1`, `Nc1nc(-c2ccccc2)cc(-c2nc3ncccc3[nH]2)n1` is 0.71 log units lower in pIC50: 6.20 for the first, 5.49 for the second. The first is the more potent here.

`NCC(Cc1ccccc1)NC(=O)c1cnc(-c2c[nH]c3ncccc23)s1` (centres undefined) and `CC(CCc1ccccc1)NC(=O)CN(Cc1ccccn1)Cc1ccccn1` (centres undefined) are within 0.2 log units of each other in pIC50: 5.70 for the first, 5.60 for the second.

First: O=c1ccn(-c2ccc([N+](=O)[O-])cc2Cl)c2ccc(F)cc12
Second: O=C1CSC(c2cccnc2)N1c1ccc(Cl)cc1Cl (centres undefined)
The pIC50 of the first is 1.40 log units lower: 5.80 for the first, 7.20 for the second. The second is the more potent here.

Going from `Cc1cc2cc(CNc3ccc4c(c3)OCO4)c(=O)n(CCO)c2cc1C` to `O=C(Nc1ccc(Br)c(Cl)c1)Nc1ccc2c(c1)OCO2`, the pIC50 falls from 6.20 to 5.60 (0.60 log units).

Compared with `O=S1N=C(NCCCN(Cc2ccc(F)cc2)c2ccccn2)C(NCc2ccncc2)=N1` (centres undefined), `CN(Cc1ccc(C(N)=O)cc1)C(c1ccc(F)cc1)c1cccnc1` (centres undefined) is 2.31 log units higher in pIC50: 4.49 for the first, 6.80 for the second. The second is the more potent here.

Compared with `CCn1c(NC(=O)Cc2ccc(F)cc2)nc2ccccc21`, `O=C(CSc1ccc(F)cc1)N[C@@H](Cc1cnc[nH]1)C(=O)NCCc1ccccc1` is 1.10 log units higher in pIC50: 5.30 for the first, 6.40 for the second.

First: CCC(=O)N1N=C(c2ccc3c(c2)CCCC3)Sc2c1ncn2C(=O)CC
Second: COc1ccc2ncc(F)c(CCN3CC[C@@H](NC(=O)c4cc5c(s4)CCC5)[C@@H](O)C3)c2n1
The pIC50 of the first is 1.60 log units lower: 5.20 for the first, 6.80 for the second. The second is the more potent here.

`Cc1cc(NC(=O)C2CC2)ccc1OC1CCN(Cc2ccco2)CC1` and `Cc1ccc(NC(=O)c2ccnc(N3CCCC3)c2)cc1-c1ccsc1C(N)=O` are within 0.2 log units of each other in pIC50: 4.80 for the first, 4.89 for the second.

Going from `COc1ccccc1C1CC(c2ccc(NS(C)(=O)=O)cc2)=NN1C(=O)c1cccs1` (centres undefined) to `COc1ncc(-c2ccc3nccc(-c4ccncc4)c3c2)cc1NS(=O)(=O)C1CC1`, the pIC50 rises from 4.60 to 6.49 (1.89 log units). The second is the more potent here.

Compared with `Cc1cc2nc(N3CC[C@H]3C(N)=O)nc(Nc3cc(C4CC4)[nH]n3)c2s1`, `NC(=O)c1ccccc1Nc1nc(NC2CCCCC2)nc2[nH]ccc12` is 0.80 log units higher in pIC50: 5.20 for the first, 6.00 for the second.

Compared with `CCCc1cc(C(=O)Nc2ncc(-c3cccc(Br)c3)n2C)n[nH]1`, `COc1ccc(S(=O)(=O)NC(C)C)cc1Nc1ncc(-c2cccc(F)c2)cn1` is 0.60 log units higher in pIC50: 5.60 for the first, 6.20 for the second.

Going from `COc1cc2c(cc1OC)[C@H]1[C@@H](C)c3ccc(OC)c(OC)c3CN1CC2` to `COc1cnc2ccc(=O)n(CCN3CCC(NC/C=C/c4cc(F)ccc4F)CC3)c2c1`, the pIC50 rises from 4.60 to 7.80 (3.20 log units). The second is the more potent here.

Going from `Cn1nccc1-c1cc(OC(CN)c2ccccc2)cnc1-c1ccco1` (centres undefined) to `CCc1cccc(CC)c1-n1c(SCC(=O)N2CC(=O)Nc3ccccc32)nnc1-c1cccnc1`, the pIC50 falls from 6.40 to 4.60 (1.80 log units).

Going from `Cc1ccc(Nc2nc(N)nc(CNC(c3nc4ccccc4[nH]3)C(C)C)n2)cc1` (centres undefined) to `CC(C)n1c(-c2nonc2N)nc2cccc(OCCN3CCCC3)c21`, the pIC50 falls from 6.00 to 5.00 (1.00 log units).

`COc1ccc2ncc(F)c(NC(=O)C3(O)CCC(NCc4ccc5c(c4)OCCO5)CC3)c2n1` (centres undefined) showed a pIC50 of 6.80.

`Cc1cc(N2CCc3ccccc3C2)nc(Nc2ccc(S(=O)(=O)N3CCOCC3)cc2)n1` was tested, and the IC50 was > 50 µM (inactive).
`NC(N)=Nc1nc(-c2ccc(NC(N)=NCCN3CCCC3)cc2)cs1` was tested, and the IC50 was > 50 µM (inactive).
For `CNC(=O)C1Cc2ccccc2N1C(=O)COc1cccc(OC)c1` (centres undefined), the IC50 was > 50 µM (inactive).
In the case of `O=C(Nc1ccccc1C(=O)Nc1ccccn1)c1ccco1`, the IC50 was > 50 µM (inactive).
`O=C(NC1CCN(C2Cc3ccc(NS(=O)(=O)c4cc(F)cc(F)c4)cc3C2)CC1)C1CC1` (centres undefined) was tested, and the IC50 was > 50 µM (inactive).
